Patent US10004750B2, “Salt of cephalosporin derivative, its crystalline solid and a method of manufacturing thereof” (Shionogi & Co., Ltd., priority 2014, dated 2018)

Assays:
Type in all cases: physicochemical
[1] = pKa measurement by capillary electrophoresis method (CE method); conditions: 25° C., pH 2.5 to 11.5 buffer
From the text: (Measuring Method by Capillary Electrophoresis Method, CE Method)
It is a method by using Capillary Zone Electrophoresis technique and a method of separation by using free electrophoresis of each sample component in a buffer including electrolyte.
After injecting a compound solution to fused silica capillary filling a buffer adjusting the pH 2.5 to 11.5, high voltage (Inlet side +, Outlet side −) is on capillary, and then a compound moves at a speed reflecting an ionized state at the pH of the buffer (a compound having (+) charge moves quickly, and a compound having (−) charged moves slowly). pKas was calculated by plotting the difference between the migration time of the compound and that of a neutral molecule (DMSO) against pH, and fitting. […]

[2] = Solubility of the compound (IA) in water
[3] = Solubility of sodium salt in various aqueous media
Procedure: To anisole (1.54 L) cooling in dry ice-ethanol bath was added aluminium chloride (495.4 g, 3.71 mol) followed by dichloromethane. 610 g of the crude product containing the compound 8 obtained by Step 1 was dissolved in a mixed solution of dichloromethane (0.51 L) and anisole (1.03 L) and spent 1 hour adding dropwise to the above aluminium chloride solution re-cooling to −40° C. The container used for the dropwise was washed with a mixed solution of dichloromethane (0.36 L) and anisole (0.51 L) and the wash fluid was added to the reaction solution. The reaction solution was stirred at −20° C. for 2 hours, and added to a mixed solution of ethanol (7.1 L), 1 mol/L hydrochloric acid (7.1 L) while stirring under cooling in ice-bath. The mixed solution was stirred for 30 minutes under ice-cooling, dichloromethane (5.14 L) and saturated brine (257 mL) was added, the separated aqueous layer was washed with dichloromethane (5.14 L). The organic layer was extracted with a mixture of water (2.57 L) and saturated brine (100 mL), and the separated aqueous layer was combined with the previous aqueous layer. The aqueous layer was stirred under cooling in ice-bath, and 2 mol/L sodium hydroxide aqueous solution was added to adjust pH to 1.5 and the solution was left to stand. The aqueous layer was concentrated and purified by HP20SS column (eluent: 13% acetonitrile water). Sodium bicarbonate (8.75 g) was added to the collected fractions containing the target product and the resulting solution was concentrated under reduced pressure until 500 mL. The solution was diluted by adding water (1.6 L) and filtered with cotton plug, and then the filtrate was lyophilized to yield the compound 9 (77.8 g). • Elemental analysis: (calculated as C30H33ClN7O10S2Na 4.5H2O) • Calculated: C; 42.13, H; 4.95, N; 11.46, S; 7.50, Cl; 4.14, Na; 2.69(%) • Measured: C; 42.22, H; 4.88, N; 11.24, S; 7.01, Cl; 4.04, Na; 2.74(%) The solubility of the obtained compound 9 in various aqueous medium (water for injection, saline, dextrose solution) was all 100 mg/mL or more, and they are very high solubility.

[4] = Dynamic vapor sorption measurement; conditions: 25° C.
Procedure: Dynamic vapor sorption (DVS) is a gravimetric technique that measures how quickly and how much of water is absorbed and desorbed by a sample in several relative humidity (RH). A degree of water absorption is calculated by weight change in controlled humidity increased from 0% RH to 95% RH stepped 5% or 10%. Similarly, a degree of water desorption is calculated in humidity decreased from 95% RH to 0% RH. An absorption-desorption isotherm is obtained by plotting a value of weight change in each humidity. […] When the anhydrate crystal transforms to hydrate crystal by humidity, the results of measurement indicate transformation humidity and amount of crystal water. The dynamic vapor sorption measurement of the crystalline solid obtained in each example was carried out. The sample of about 18.0 mg was measured and transferred to a sample pan, and it was measured. The measurement condition is shown below. • Device: DVS Advantage made by Surface Measurement Systems LTD. • Measurement point: each 5% from RH95% to RH0%. • Temperature: 25° C. (Method of Measuring the Karl Fischer Method) The results of a dynamic vapor sorption measurement of the type I crystal D obtained in Example 6-1 were shown in FIG. 7 and Table 7. Dynamic vapor sorption measurement can be occurred errors within the range of ±0.5%. An increased amount of water (%) represents an increased amount of the type I crystal at 0% RH.

[5] = Solid stability test of crystalline solid; conditions: −20±5° C. or 5±5° C., light shielding, double polyethylene bag in metal can, 0, 3, 6, 9, 12 months
Procedure: The type I crystal D about 1 g was put in a polyethylene bag and tightened with a convex. This bag was further put in a polyethylene bag and tightened with a convex in the same way. The above sample of the same storage conditions was put together in a metal can as a stability evaluation sample. The storage conditions, storage period and test items are as follows.
• Temperature: −20±5° C. or 5±5° C. • Light shielding • Package form: double polyethylene bag, convex, metal can • Storage period: 0, 3, 6, 9, 12 months (Measurement)
Using the type I crystal D stored at the above storage conditions and storage period, after viewing the change in appearance, the contents of the compound (IA) and the related substances were measured by the following method.
Step 1: Preparation of a Sample Solution
About 40 mg of the sample was weighed precisely, and dissolved in a sample dilution solvent to be exactly 25 mL. • 5 mmol/L phosphate buffer/liquid chromatography acetonitrile mixture (9:1) was used as the above sample dilution solvent was used. Herein, water: 0.05 mol/L sodium dihydrogen phosphate test solution: 0.05 mol/L disodium hydrogen phosphate reagent mixture=18:1:1 (pH is about 7.1) was used as a phosphate buffer. Step 2: HPLC Measurement of Related Substances
The above sample solution was measured by liquid chromatography under the following test condition to measure peak areas of the compound (IA) and its related substances by the automatic integration method.
• Column: YMC-UltraHT Pro C18, φ2.0×100 mm, 2 μm, YMC • Column temperature: 35° C. • UV detection wavelength: 261 nm • Mobile phase: [A] […]
• Flow rate: 0.5 mL per minute (a retention time of the compound (IA) about 5 minutes) The amount of related substances in the sample was determined by using the following formula. […]
The above standard solution and sample solution was measured by liquid chromatography under the following test condition to determine a peak area of the compound (IA) by an automatic integration method. […]
The content of related substances in the sample was determined using the following formula. […]

In the case of `CC(C)(O/N=C(\C(=O)N[C@@H]1C(=O)N2C(C(=O)[O-])=C(C[N+]3(CCNC(=O)c4ccc(O)c(O)c4Cl)CCCC3)CS[C@H]12)c1csc(N)n1)C(=O)O` (stereo in doubt) [compound (IA)], the pKa1 [1] is reported as 4.2, the pKa2 [1] is reported as 7.2 and the solubility in water [2] is reported as “very low”.
In the case of `CC(C)(O/N=C(\C(=O)N[C@@H]1C(=O)N2C(C(=O)[O-])=C(C[N+]3(CCNC(=O)c4ccc(O)c(O)c4Cl)CCCC3)CS[C@H]12)c1csc(N)n1)C(=O)O` [compound 9], the solubility ([3]; dextrose solution, saline or isotonic) is reported as ≥ 100 mg/mL, the solubility ([3]; saline, saline or isotonic) is reported as ≥ 100 mg/mL and the solubility ([3]; water for injection, water) is reported as ≥ 100 mg/mL.
In the case of `CC(C)(O/N=C(\C(=O)N[C@@H]1C(=O)N2C(C(=O)[O-])=C(C[N+]3(CCNC(=O)c4ccc(O)c(O)c4Cl)CCCC3)CS[C@H]12)c1csc(N)n1)C(=O)O` [type I crystal D], the “Increased amount of water (%)” value ([4]; Relative humidity 0% RH, relative to type I crystal at 0% RH) is reported as 0.00%, the “Increased amount of water (%)” value ([4]; Relative humidity 5% RH, relative to 0% RH) is reported as 3.33% and the “Increased amount of water (%)” value ([4]; Relative humidity 10% RH, relative to 0% RH) is reported as 5.26%. The “Increased amount of water (%)” value ([4]; Relative humidity 15% RH, relative to 0% RH) was 7.70%, the “Increased amount of water (%)” value ([4]; Relative humidity 20% RH, relative to 0% RH) was 10.53% and the “Increased amount of water (%)” value ([4]; Relative humidity 25% RH, relative to 0% RH) was 11.67%. For the same compound, the “Increased amount of water (%)” value ([4]; Relative humidity 30% RH, relative to 0% RH) was 12.28%, the “Increased amount of water (%)” value ([4]; Relative humidity 35% RH, relative to 0% RH) was 12.75% and the “Increased amount of water (%)” value ([4]; Relative humidity 40% RH, relative to 0% RH) was 13.16%. The “Increased amount of water (%)” value ([4]; Relative humidity 45% RH, relative to 0% RH) was 13.54%, the “Increased amount of water (%)” value ([4]; Relative humidity 50% RH, relative to 0% RH) was 13.91% and the “Increased amount of water (%)” value ([4]; Relative humidity 55% RH, relative to 0% RH) was 14.25%. For the same compound, the “Increased amount of water (%)” value ([4]; Relative humidity 60% RH, relative to 0% RH) was 14.55%, the “Increased amount of water (%)” value ([4]; Relative humidity 65% RH, relative to 0% RH) was 14.93% and the “Increased amount of water (%)” value ([4]; Relative humidity 70% RH, relative to 0% RH) was 15.26%. The “Increased amount of water (%)” value ([4]; Relative humidity 75% RH, relative to 0% RH) was 15.55%, the “Increased amount of water (%)” value ([4]; Relative humidity 80% RH, relative to 0% RH) was 15.82% and the “Increased amount of water (%)” value ([4]; Relative humidity 85% RH, relative to 0% RH) was 16.08%. The “Increased amount of water (%)” value ([4]; Relative humidity 90% RH, relative to 0% RH) was 16.34%, the “Increased amount of water (%)” value ([4]; Relative humidity 95% RH, relative to 0% RH) was 16.60% and the “change in appearance on storage” value [5] was “no change in the appearance”. For the same compound, the “increase of content of related substances on storage (HPLC)” value [5] was “not observed” and the “solid storage stability (overall)” value [5] was “very stable”.
